Data published in patent US20220110916A1, “Antioxidant and Use Thereof” (Bioradical Research Institute Corp., priority 2019, published 2022).

How the values were obtained:
[1] = test system: rat auricular subcutaneous blood vessel; assay: Vasodilation of rat auricular subcutaneous blood vessel after intravenous administration; type: in vivo
From the text: Oxidative stress caused by reactive oxygen species is known to reduce NO production in vascular endothelial cells, resulting in vasoconstriction and decreased blood flow. Therefore, using vasodilation as an indicator, it was examined whether the antioxidant of the present invention scavenges reactive oxygen species in vivo.
Eight-week old or older female rats (Wistar, body weight: approximately 200 g, n=1) were anesthetized by subcutaneous administration of urethane so as to be […] body weight. The hair of the auricles of the rats was then removed and the rats were fixed on a fixing table. […]
BisEP-C3 was dissolved in a saline solution to achieve a concentration of 3 mg/ml. […] Then, the hemodynamic course of the rat auricular subcutaneous blood vessel was photographed and recorded using a microscope at a predetermined period of time (30, 60, 120 or 180 minutes) before and after the administration.
The obtained images were classified into three blood vessel thicknesses (thick: 35-45 μm, medium: 15-20 μm, thin: 7-9 μm) based on the diameter of the blood vessel before administration. […] Further, for each selected site, the relative blood vessel diameter was calculated after the measurement of the blood vessel diameter, with the blood vessel diameter before administration being a reference (1). […]

[2] = test system: mesentery blood vessels of rats given lipopolysaccharide; assay: LPS-induced mesenteric bleeding and leukocyte rolling in rats; type: in vivo, rat
From the text: Administration of lipopolysaccharide to the mesentery vicinity blood vessels generates reactive oxygen species (ROS), causing vascular disorder and bleeding. Therefore, using the bleeding area as an indicator, it was examined whether the antioxidant of the present invention scavenges ROS in vivo.
Eight-week old or older female rats (Wistar, body weight: approximately 200 g, n=1) were anesthetized by subcutaneous administration of urethane (1.75 g/kg body weight). The rats were then opened and fixed on a fixing table in such a manner that the mesentery of the rats was observable. After the fixing, the fixing table was placed under a microscope (Nikon OPTIphoto, produced by Nikon Corporation) so that the mesentery could be observed. In addition, a catheter was placed in the groin vein of the rat.
1 μg/ml of lipopolysaccharide ((LPS), produced by Sigma-Aldrich Co., Ltd.) derived from Pseudomonas aeruginosa (ATCC27316) was added dropwise once (20 μL, 20 ng/sight) and allowed to stand for 30 minutes. […] In the obtained photograph, the area of the region where bleeding occurred (bleeding area) was detected based on the number of pixels, and then the proportion of the area (bleeding area proportion) occupied per visual field was calculated. […]

## CCN1N=C(C)/C(=C\C=C\c2c(C)nn(CC)c2O)C1=O (racemic) [BisEp-C3, 2,4-dihydro-4-[3-(1-ethyl-5-hydroxy-3-methyl-1H-pyrazol-4-yl)-2-propen-1-ylidene]-2-ethyl-5-methyl-3H-pyrazol-3-one]
[1]; 3 mg/kg body weight intravenously, 30, 60, 120 or 180 minutes, vs saline control, n=1, FIG. 10
  relative value of the blood vessel diameter: dilated at any time after administration as compared to the control
[1]; 3 mg/kg intravenously, thick 35-45 μm, medium 15-20 μm, thin 7-9 μm
  severity of dilatation of the blood vessel diameter by blood vessel size: remarkably observed in the smaller blood vessels
[2]; rat mesentery, LPS 20 ng/sight, 1 mg/kg intravenously then 1 mg/kg per hour, up to 180 minutes, n=1, FIGS. 12 and 13
  bleeding area / bleeding area proportion: no bleeding was observed after the LPS administration
[2]; rat, after LPS instillation, compared to the control
  rolling phenomena of leukocytes in the blood vessel: a large number of rolling phenomena of leukocytes were observed
